Measurements: patent publication US20240352000A1, “NOVEL PYRIMIDINE-2,4-DIAMINE DERIVATIVES, PREPARATION METHOD THEREFOR, AND PHARMACEUTICAL COMPOSITION CONTAINING SAME AS ACTIVE INGREDIENT FOR PREVENTION OR TREATMENT OF CANCER” (KOREA RESEARCH INSTITUTE OF CHEMICAL TECHNOLOGY, priority 2021, published 2024)

Assays:
Ba/F3 EGFR del19/T790M = assay: CellTiter-Glo cell viability, Ba/F3 EGFR del19/T790M; assay type: cell-based; conditions: 72 hours
Method: (§1) An experiment to measure the activity of the compounds of the present invention against the mutant Ba/F3 EGFR cell line was performed as follows using the CellTiter-Glo system sold by Promega. The CellTiter-Glo assay is a method to confirm the cell viability by measuring ATP present in cells in cell culture. For the Ba/F3 EGFR del19, Ba/F3 EGFR del19/T790M, Ba/F3 del19/T790M/C797S mutant cell line, a cell line provided by Crown Bioscience was purchased and used. The Ba/F3 EGFR del19, Ba/F3 EGFR del19/T790M, Ba/F3 del19/T790M/C797S mutant cell line was cultured in RPMI containing 10% FBS and 1% penicillin-streptomycin with 1 μg of puromycin in an incubator at 37° C. and 5% CO2.
(§2) Analysis of the inhibitory ability effect of the compounds against EGFR was conducted according to the following analysis reaction recipe.
(§3) 2500 cells/90 μL were passaged and cultured in a 96-well cell culture plate, and after 24 hours, treated with the compound represented by Formula 1 at a concentration of 0, 0.01, 0.03, 0.1, 0.3, 1, 3, and 10 (μM). After reaction for 72 hours, the plate treated with the compound was left at room temperature for 30 minutes, then further treated with 100 μl of reagent, and shaken at room temperature for 10 minutes. Finally, the ratio of fluorescence values at 570 nm was obtained using the equipment to quantitatively measure and confirmed the inhibitory ability of the compounds. The measurement values measured at eight compound concentrations were analyzed using the Prism program (version 5.01, Graphpad Software, Inc.), and the IC50 value, which is an indicator of the inhibitory ability of the compound, was calculated.

HER2 A775_G776insYVMA = HER2 A775_G776insYVMA (Homo sapiens (Human), UniProt P04626, INS775YVMA); assay: HTRF enzyme assay, HER2 mutant enzyme; assay type: biochemical; conditions: recombinant enzyme, 37° C. 2 hours
Method: An experiment to measure the activity of the compounds of the present invention against HER mutant enzymes was performed as follows using the HTRF system sold by Cisbio. For the HER2 mutant enzyme, HER2 A775_G776insYVMA mutant enzyme, a recombinant protein provided by Carna Biosciences was purchased and used.
(§4) The composition of the assay buffer used for measuring the activity was 50 mM Tris-HCl pH 7.5, 100 mM NaCl, 7.5 mM MgCl2, 3 mM KCl, 0.01% Tween 20, 0.1% BSA, and 1 mM DTT. Here, an enzyme reaction was performed using with ATP at a concentration of […] and a peptide substrate labeled biotin at a concentration of […]. Analysis of the inhibitory effect of the compounds against the HER2 A775_G776insYVMA mutant activity was conducted according to the following analysis reaction recipe. • Component 1: 4 μL of a HER2 A775_G776insYVMA mutant enzyme • Component 2: 2 μL of a compound solution • Component 3: 4 μL of ATP and a peptide labeled with biotin
(§5) The enzyme reaction was started by first mixing Component 1 and Component 2 and then adding Component 3. After reaction at 37° C. for 2 hours, […] of measurement solution consisting of streptavidin-XL665 and europium-labeled anti-phosphotyrosine antibody provided by Cisbio was added to the enzyme reaction solution and reacted at room temperature for 1 hour. Finally, the ratio of fluorescence values at 615 nm and 665 nm was obtained using the Envision equipment from Perkin-Elmer to quantitatively measure the enzyme activity and confirmed the inhibitory ability of the compounds. The measurement values measured at seven compound concentrations were analyzed using the Prism program (version 5.01, Graphpad Software, Inc.), and the IC50 value, which is an indicator of the inhibitory ability of the compound, was calculated.

Ba/F3 EGFR del19 = assay: CellTiter-Glo cell viability, Ba/F3 EGFR del19; assay type: cell-based; conditions: 72 hours
Method: as §1, §2, §3

EGFR del19/T790M = EGFR del19/T790M (Homo sapiens (Human), UniProt P00533, DEL746-750/T790M); assay: HTRF enzyme assay, EGFR del19/T790M mutant enzyme; assay type: biochemical; conditions: recombinant enzyme, 37° C. 2 hours
Method: (§6) An experiment to measure the activity of the compounds of the present invention against EGFR mutant enzymes was performed as follows using the HTRF system sold by Cisbio. For the EGFR del19/T790M mutant enzyme, a recombinant protein provided by Carna Biosciences was purchased and used, and for the EGFR del19/T790M/C797S mutant enzyme, a protein provided by SignalChem was purchased and used as an enzyme source.
as §4, with “performed using ATP at” for “performed using with ATP at”, “substrate labeled with biotin at” for “substrate labeled biotin at”, “against the EGFR activity was” for “against the HER2 A775_G776insYVMA mutant activity was”, “μL of an EGFR mutant enzyme” for “μL of a HER2 A775_G776insYVMA mutant enzyme”
as §5

Ba/F3 EGFR L858R/T790M = assay: CellTiter-Glo cell viability, Ba/F3 EGFR L858R/T790M; assay type: cell-based; conditions: 72 hours
Method: (§7) An experiment to measure the activity of the compounds of the present invention against the mutant Ba/F3 EGFR cell line was performed as follows using the CellTiter-Glo system sold by Promega. The CellTiter-Glo assay is a method to confirm the cell viability by measuring ATP present in cells in cell culture. The Ba/F3 EGFR L858R, Ba/F3 EGFR L858R/T790M, Ba/F3 EGFR L858R/T790M/C797S mutant cell line was used. The Ba/F3 EGFR L858R, Ba/F3 EGFR L858R/T790M, and Ba/F3 EGFR L858R/T790M/C797S mutant cell lines was cultured in RPMI containing 10% FBS and 1% penicillin-streptomycin with 1 μg of puromycin in an incubator at 37° C. and 5% CO2.
as §2
as §3, with “μl” for “μL”

[1] = system: Ba/F3 EGFR L858R/T790M/C797S; assay: CellTiter-Glo cell viability, Ba/F3 EGFR L858R/T790M/C797S; assay type: cell-based; conditions: 72 hours
Method: as §7, §2
as §3, with “μl” for “μL”

EGFR del19/T790M/C797S = EGFR del19/T790M/C797S (Homo sapiens (Human), UniProt P00533, C797S/DEL746-750/T790M); assay: HTRF enzyme assay, EGFR del19/T790M/C797S mutant enzyme; assay type: biochemical; conditions: enzyme from SignalChem, 37° C. 2 hours
Method: as §6
as §4, with “performed using ATP at” for “performed using with ATP at”, “substrate labeled with biotin at” for “substrate labeled biotin at”, “against the EGFR activity was” for “against the HER2 A775_G776insYVMA mutant activity was”, “μL of an EGFR mutant enzyme” for “μL of a HER2 A775_G776insYVMA mutant enzyme”
as §5

HER2 A775_G776insYVMA, sequence (P04626 other isoform, or with tags, fused parts or gaps del 1-675/ins YVMA behind 775 limits assumed): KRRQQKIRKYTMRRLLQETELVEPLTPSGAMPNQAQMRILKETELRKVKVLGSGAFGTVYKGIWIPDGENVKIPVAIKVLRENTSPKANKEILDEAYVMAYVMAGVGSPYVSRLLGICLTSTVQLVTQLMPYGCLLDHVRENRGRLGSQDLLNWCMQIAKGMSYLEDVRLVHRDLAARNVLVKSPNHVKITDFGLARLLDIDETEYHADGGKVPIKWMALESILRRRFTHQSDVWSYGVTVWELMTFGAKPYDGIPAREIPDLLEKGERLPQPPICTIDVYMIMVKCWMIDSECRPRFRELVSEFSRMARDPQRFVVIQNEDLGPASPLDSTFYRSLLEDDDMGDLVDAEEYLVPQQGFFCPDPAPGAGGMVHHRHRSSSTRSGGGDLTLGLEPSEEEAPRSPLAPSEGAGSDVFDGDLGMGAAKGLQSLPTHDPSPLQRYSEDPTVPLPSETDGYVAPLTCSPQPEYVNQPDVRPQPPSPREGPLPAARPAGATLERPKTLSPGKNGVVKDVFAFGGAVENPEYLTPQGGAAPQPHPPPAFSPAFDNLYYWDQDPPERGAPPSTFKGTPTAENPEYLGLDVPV
EGFR del19/T790M/C797S, sequence (P00533 other isoform, or with tags, fused parts or gaps T790M/C797S/del 1-694/del 746-750 limits assumed): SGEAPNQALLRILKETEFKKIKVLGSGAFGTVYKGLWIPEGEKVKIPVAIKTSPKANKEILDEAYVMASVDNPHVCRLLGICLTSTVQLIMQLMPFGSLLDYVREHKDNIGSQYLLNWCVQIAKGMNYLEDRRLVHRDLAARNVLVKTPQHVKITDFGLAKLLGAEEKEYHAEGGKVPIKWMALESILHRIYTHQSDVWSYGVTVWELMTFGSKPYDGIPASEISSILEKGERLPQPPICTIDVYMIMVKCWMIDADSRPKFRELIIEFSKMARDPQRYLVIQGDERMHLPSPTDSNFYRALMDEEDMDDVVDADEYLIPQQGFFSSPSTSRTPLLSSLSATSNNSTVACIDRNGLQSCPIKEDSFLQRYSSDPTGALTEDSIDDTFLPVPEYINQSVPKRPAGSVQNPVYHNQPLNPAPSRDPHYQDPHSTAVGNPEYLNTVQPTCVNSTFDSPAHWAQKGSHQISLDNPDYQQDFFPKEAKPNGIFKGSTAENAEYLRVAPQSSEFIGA
EGFR del19/T790M, sequence (P00533 other isoform, or with tags, fused parts or gaps T790M/del 1-668/del 746-750 limits assumed): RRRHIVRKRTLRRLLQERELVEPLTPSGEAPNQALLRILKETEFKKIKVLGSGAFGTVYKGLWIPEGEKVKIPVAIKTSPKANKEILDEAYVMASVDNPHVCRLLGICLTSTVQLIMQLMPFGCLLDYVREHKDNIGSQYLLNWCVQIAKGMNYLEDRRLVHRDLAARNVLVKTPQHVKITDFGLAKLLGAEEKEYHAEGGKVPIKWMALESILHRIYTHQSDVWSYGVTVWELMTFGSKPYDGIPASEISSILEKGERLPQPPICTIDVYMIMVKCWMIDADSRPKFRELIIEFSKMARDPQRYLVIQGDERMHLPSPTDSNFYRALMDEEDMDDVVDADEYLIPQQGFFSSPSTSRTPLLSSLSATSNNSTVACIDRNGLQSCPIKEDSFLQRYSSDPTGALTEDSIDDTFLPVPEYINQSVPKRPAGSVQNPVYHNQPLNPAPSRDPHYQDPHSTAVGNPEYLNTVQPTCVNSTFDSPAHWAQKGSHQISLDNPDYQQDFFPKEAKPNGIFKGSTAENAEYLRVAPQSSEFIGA

IC50 (Ba/F3 EGFR del19/T790M) | IC50 (HER2 A775_G776insYVMA) | IC50 (Ba/F3 EGFR del19) | IC50 (EGFR del19/T790M) | IC50 (Ba/F3 EGFR L858R/T790M) | IC50 [1] | IC50 (EGFR del19/T790M/C797S) | Structure (SMILES)
< 100 nM | 1 nM | < 30 nM | < 1 nM | < 30 nM | < 100 nM | < 1 nM | COc1cc(N2CCC(N3CCN(C)CC3)CC2)ccc1Nc1ncc(Cl)c(Nc2cccc3c2N(S(C)(=O)=O)CC3)n1 [Example 2, 5-chloro-N2-(2-methoxy-4-(4-(4-methylpiperazin-1-yl)piperidin-1-yl)phenyl)-N4-(1-(methylsulfonyl)indolin-7-yl)pyrimidine-2,4-diamine]
< 30 nM | 3 nM | < 30 nM | < 1 nM | < 30 nM |  | < 1 nM | COc1cc(N2CCC(N3CCN(C)CC3)CC2)ccc1Nc1ncc(Cl)c(Nc2cccc3c2N(S(C)(=O)=O)CCC3)n1 [Example 5, 5-chloro-N2-(2-methoxy-4-(4-(4-methylpiperazin-1-yl)piperidin-1-yl)phenyl)-N4-(1-(methylsulfonyl)-1,2,3,4-tetrahydroquinolin-8-yl)pyrimidine-2,4-diamine]
